Laboratory results: patent US9757477B2, “Imaging brown adipose tissue with curcumin derivatives” (The General Hospital Corporation, priority 2013, dated 2017)
Where “and” joins values, the source holds several entries; their conditions need not be identical. Equal entries are not always repeated.

Tests used:
UCP-1 = assay: qPCR for UCP-1 expression in dissected sWAT; type: in vivo, C57BL6 mice; conditions: CL 316,243 1.0 mg/kg i.p. for 12 days
Experimental: (§1) Two-month old C57BL6 mice (n=5) were i.p. injected CL 316,243 (100 uL, 1.0 mg/kg) for 12 days, and the control mice (n=5) were i.p. injected with saline. On the 13th day, both groups were imaged after i.v. injection of CRANAD-29. Images were acquired at 1-, 2-, 4-hours after the probe injection. After the last imaging session, inguinal sWAT were dissected after scarification of the mice, and the dissected sWAT tissue was subjected to qPCR for UCP-1 expression and H&E staining

inguinal sWAT = assay: Monitoring browning of subcutaneous WAT after CL 316,243 treatment; type: in vivo, C57BL6 mice; conditions: CL 316,243 1.0 mg/kg i.p. for 12 days
Experimental: as §1

interscapular BAT [1] = assay: Time course and dose optimization of probe signal in BAT area after i.v. injection; type: in vivo, mice; conditions: mouse, in vivo, iv
Experimental: (§2) Next the time course of CRANAD-2 and CRANAD-3 accumulation in BAT area was investigated. […] Similarly, the signal of CRANAD-3 reached the uptake peak around one hour, and then gradually washed out (FIG. 8c-d). Accumulation of CRANAD-2 and -3 in BAT was further confirmed with ex vivo histology of the dissected BAT slices, performed as follows. The dissected BAT was fixed with 4% formalin at 4° C. overnight, and then embedded into OCT. BAT tissue was cut into 7 micron thickness slices, washed with PBS buffer, and co-stained with DAPI (Vectra Shield, Vector Lab, Burlingame, Calif.). Images were acquired with fast exposure to capture the dye signal in the oil droplets. To outline cell membrane cell autofluorescence was captured with long exposure after image of the dye signal from oil droplets was already acquired. To further validate the capacity of CRANAD-29 for BAT labeling, ex vivo histological microscopic imaging with CRANAD-29 was conducted. […] Gold standard H&E staining also provided similar images (FIG. 10a). […] The injection dose of CRANAD-29 was optimized, and the fluorescence signal reached its plateau at 0.4 mg/kg (FIG. 11). In the following studies, 0.1 mg/kg dose was used.

[2] = Excitation and emission wavelengths of BAT imaging agents; type: physicochemical
Experimental: In some embodiments, the methods include irradiating the mammal with light of the appropriate wavelength to excite the BAT imaging agent, and detecting emissions therefrom.
Fluorescent dyes were purchased from Exciton Inc. (Dayton, Ohio) and Invitrogen. The reagents used for the synthesis were purchased from Aldrich and used without further purification. Column chromatography was performed on silica gel (SiliCycle Inc., 60 Å, […]) slurry packed into glass columns. 1H, 13C NMR spectra were recorded at 500 MHz and 125 MHz respectively, and reported in ppm downfield from tetramethylsilane. Fluorescence studies were carried out using a F-4500 Fluorescence Spectrophotometer (Hitachi). Mass spectra were obtained at Harvard University, Department of Chemistry Instrumentation Facility. Microscopic images were acquired with Nikon Eclipse 50i microscope. In vivo NIR imaging was performed using the IVIS® Spectrum animal imaging system (Caliper LifeSciences, Perkin Elmer, Hopkinton, Mass.), and data analysis was conducted using LivingImage® 4.2.1 software.

[3] = system: BAT cells induced from wild-type brown preadipocytes; assay: In vitro staining of BMPs-induced BAT cells (live cell confocal); type: cell-based; conditions: live cell confocal images
brown adipose cells = assay: Ex vivo histology of dissected BAT slices; parameters: species or system mice; conditions: fluorescence microscopy
Experimental: as §2

interscapular BAT [4] = assay: Top-down whole-organism NIR fluorescence screening of dyes (ROI1/ROI2 contrast); type: in vivo, nude mice; conditions: for Ratio No 1 (ROI1/ROI2 average fluorescence intensity) / Ratio No 2 (ROI1/ROI2 average fluorescence intensity) / Ratio No 3 (ROI1/ROI2 average fluorescence intensity) / Ratio AVERAGE (mean ratio ROI1/ROI2): nude mice, one hour post-injection; for Ratio No 1 (ROI1/ROI2 average fluorescence intensity) / Ratio No 2 (ROI1/ROI2 average fluorescence intensity) / Ratio No 3 (ROI1/ROI2 average fluorescence intensity): 10 μg/mouse i.v.; for Ratio No 1 (ROI1/ROI2 average fluorescence intensity): first excitation/emission filter pair; for Ratio No 2 (ROI1/ROI2 average fluorescence intensity): second excitation/emission filter pair; for Ratio No 3 (ROI1/ROI2 average fluorescence intensity): third excitation/emission filter pair; for Ratio AVERAGE (mean ratio ROI1/ROI2): i.v., mean of three filter pairs, hit threshold >1.10
Experimental: 38 fluorescent dyes from commercial resources and from the inventors' laboratory were screened. Dyes with excitation range of 550-745 nm, emission range of 600-840 nm, and with molecular weight of less than 700 Da (except Cy5.5) (representative dyes are listed in FIG. 1d and the full list is shown in Table 2). Their hydrophobicities were not determined. The library was screened by intravenous tail injection of compounds into nude mice (10μg/mouse). Each dye was imaged with three optimized excitation/emission filter-pairs, and images at one hour after i.v. injection were acquired.
Top-down whole organism screening was performed as follows. Nude mice (nu/nu COX7) were purchased from Massachusetts General Hospital and Balb/c mice were from Jackson Laboratory. All animal experimental procedures were approved by the Institutional Animal Care and Use Committee (IACUC) at Massachusetts General Hospital. Dye stock solutions were prepared in DMSO. The final injection solution (0.1 mg/ml) was freshly prepared in a mixed solution of 20% DMSO, 20% Cremophor EL and 60% saline. Nude mice (n=5) were injected with a 100 μL dye solution via tail vein. For each imaging session, mice were anesthetized with a mixture of oxygen and isoflurane for 5 minutes, and then positioned into the imaging chamber of IVIS® Spectrum in vivo pre-clinical imaging system. Images were acquired at one-hour post-injection using sequence imaging with three excitation/emission filter pairs for each dye.
Hits selection was performed as follows. Hits from cell- or protein-based screening are usually selected by setting certain threshold. In the case of the top-down imaging screening, two methods were used (threshold and visible contrast) to select hits. First, three images obtained with three excitation/emission pairs were selected for each dye. These ex/em pairs were selected from the closest excitation and emission wavelengths of the tested dyes. For instance, 605/660 nm, 605/680 nm, 640/680 nm were selected for image acquisition of Nile blue (625/660 nm). The quantification of contrast for each image was calculated as a ratio of two ROIs (region of interest). ROI1 reflected the average signal from interscapular BAT and ROI2 was the average signal of the area that included BAT and white adipose tissue (WAT) around the interscapular site (FIG. 1b, left). The averaged fluorescent signal of ROI was used instead of the total signal, because the total signal depends on the area of ROI, whereas the averaged signal reflects the density of signal. The ratio of ROI1/ROI2 could reflect the signal/noise ratio of the tested probe, and could also reflect the selectivity of the probe for BAT over WAT. For each dye, three ROI1/ROI2 ratios obtained with the three filter pairs were calculated. The mean of the ratios was used as the threshold. If the mean ratio was >1.10, the dye was selected as a potential positive hit (FIG. 1c). Since the contrast of a dye in the top-down screening is in the visible range, the visible contrast around the interscapular BAT area was also tested for the hits with the mean ratio of >1.10. If both mean ratio and the visible contrast were positive, then the hit was subjected to re-testing procedure to validate its reliability as described below.
Although CRANAD-2 and CRANAD-3 were able to provide certain contrast for BAT in vivo, their excitation and emission wavelengths were still shorter than required for an ideal NIR imaging probe (both excitation and emission >640 nm). […] To seek better probes, a sub-library was synthesized based on the structures of the lead probes CRANAD-2 and -3. CRANAD-6, -19, -22, -24, -26, -32 and -43 were synthesized and tested (images and chemical structures, excitation and emission spectra are shown in FIG. 9 a-e). […] However, the ROI1/ROI2 ratio of CRANAD-22 was not improved (FIG. 9c).

interscapular BAT [5] = assay: Re-testing of hits with stepwise dissection and NIR imaging; type: in vivo, mice
Experimental: Like protein/cell-based screening, hit re-testing experiments were conducted to validate the reliability of this approach. CRANAD-2, -3, LDS 722 and Rhodamine 640 were subjected to re-testing by repeating the above imaging procedure. Images were acquired one hour after probe injection.
Next, stepwise dissection and imaging were performed to track the source of the fluorescence contrast at the interscapular site. Skin and the thin WAT layer that covers BAT were first removed, and then BAT was dissected, and NIR images were captured at each step. […] The signal contribution from BAT (R(BAT)) was roughly estimated using the ratio of fluorescence signals acquired after (F(BAT)) and before (F(intact)) the first step dissection of skin and WAT.

interscapular BAT [6] = assay: PET imaging with 18F-labeled curcumin analogue; type: in vivo, mice; conditions: 100-180 μCi tail vein
Experimental: PET imaging was conducted with a microPET P4 system (Concorde Microsystems Incorporated, Knoxville, Tenn., USA). The imaging parameters of this system are in-plane and axial resolution of 1.2 mm full width at half maximal count. Prior to PET imaging, mice were anesthetized with isoflurane/O2, and then fixed to the imaging table with a custom-fabricated mold. Injection catheter was placed in tail vein for administration of the radiotracer. Subsequently, CRANAD-5F^18 (100-180 μCi) was injected into the tail vein and volumetric dynamic data were acquired in list-mode format for 120 min. Imaging data were corrected for uniformity, attenuation, decay, and acquisition time. PET images were reconstructed using filtered back projection with a Ramp filter (cutoff value of 0.5). The software, ASIPro 6.0, was provided by the microPET manufacturer.

[7] = system: undifferentiated 3T3-L1 cells; assay: Probe uptake in undifferentiated 3T3-L1 cells (IVIS imaging); type: cell-based
Experimental: (§3) To investigate the facilitated diffusion of CRANAD-2, the time courses of CRANAD-2 uptake in 3T3-L1 cells were compared before and after differentiation. Two-photon imaging for 3T3-L1 cells was performed as follows. Fibroblast 3T3-L1 cells were differentiated following the protocol provided by Zenbio, Inc. (protocol No. ZBM0009.02). Ten microliters of CRANAD-2 (250 μM in DMSO) was added to the differentiated cells (1.0 ml). Cells were imaged after 10 min of incubation. A 940 nm laser was first used to capture an image for CRANAD-2 in 570-620 nm channel (Prairie Two-photon microscope, Middleton, Wis.). Next, the laser was tuned to 750 nm to capture autofluorescence of the cells to outline cell morphology.
(§4) IVIS imaging of 3T3-L1 cells with CRANAD-2 was performed as follows. To a 6-well plate seeded with preadipocytes or differentiated adipocytes, a 10 μL solution of CRANAD-2 (250 μM in DMSO) was added. The plate was subjected to imaging using IVIS imaging system with Ex=605 nm, Em=660 nm before and after addition of CRANAD-2. For triglyceride competition, the same protocol for two-photon imaging was used. The images were acquired at 20 min after addition of CRANAD-2. Studies were performed in triplicate.
(§5) The uptake of CRANAD-29 in 3T3-L1 cells before and after differentiation was compared. IVIS imaging of 3T3-L1 cells with CRANAD-29 was performed as follows. To a 6-well plate seeded with preadipocytes or differentiated adipocytes, a 10 μL solution of CRANAD-29 (250 μM in DMSO) was added. The plate was subjected to imaging using IVIS imaging system with Ex=640 nm, Em=700 nm before and after addition of CRANAD-29. For triglyceride competition and Hexarelin inhibition, the similar protocol for CRANAD-2 imaging was used. The final concentration of hexarelin was 12.5 μM, and the images were acquired at 3 hours after addition of CRANAD-29 and triglyceride/Hexarelin. Studies were performed in triplicate.

[8] = system: differentiated 3T3-L1 cells; assay: Probe uptake in differentiated 3T3-L1 cells (IVIS and two-photon imaging, competition); type: cell-based
Experimental: as §3
For triglyceride competition, stock solutions of CRANAD-2 (250 μM) and triglyceride (5 mM) in DMSO were prepared. Before imaging, 10 μl of the stock solution was added to the cells.
as §4, §5

With `C[C@H](Cc1ccc2c(c1)OC(C(=O)[O-])(C(=O)[O-])O2)NC[C@H](O)c1cccc(Cl)c1.[Na+].[Na+]` [CL 316,243] the “UCP-1 mRNA level in sWAT, treated mice vs control group” value (UCP-1) was 7.9 fold and the “H&E staining of sWAT slice of treated mice” value (inguinal sWAT) was “cells with multilocular lipid droplets”.

In the case of `CCN(CC)c1ccc(/C=C/C2=CC(/C=C/c3ccc(N(CC)CC)nc3)=[O+][B-](F)(F)O2)cn1` [CRANAD-3], the “time of uptake peak in BAT area” value (interscapular BAT [1]) is reported as “around one”, the “Emission λ” value [2] is reported as 660 nm and the “Excitation λ” value [2] is reported as 570 nm. For the same compound, the “staining of oil droplets in BAT cells” value [3] was “able to clearly label oil droplets in BAT cells”, the “labeling in ex vivo histology of BAT slices” value (brown adipose cells) was “labeled oil droplets in brown adipose cells” and the “visible contrast around the interscapular BAT area” value (interscapular BAT [4]; in vivo NIR images) was “best contrast and clear triangular contour”. The “Ratio No 1 (ROI1/ROI2 average fluorescence intensity)” value (interscapular BAT [4]) was 1.34E+00, the “Ratio No 2 (ROI1/ROI2 average fluorescence intensity)” value (interscapular BAT [4]) was 1.33E+00 and the “Ratio No 3 (ROI1/ROI2 average fluorescence intensity)” value (interscapular BAT [4]) was 1.31E+00. The “Ratio AVERAGE (mean ratio ROI1/ROI2)” value (interscapular BAT [4]) was 1.32 and 1.32E+00, the “R(BAT), signal contribution from BAT, F(BAT)/F(intact)” value (interscapular BAT [5]; fluorescence after vs before dissection of skin and WAT, roughly estimated) was 0.51 and the “contrast among the re-tested dyes” value (interscapular BAT [5]; images one hour after probe injection) was “highest contrast”. The “fluorescence signal from BAT (before vs after BAT removal)” value (interscapular BAT [5]; stepwise dissection) was “able to label BAT” and the “selectivity for BAT (over WAT)” value (interscapular BAT [5]; stepwise dissection) was “low”.

In the case of `CN(C)c1ccc(C=CC(O)=CC(=O)C=Cc2ccc(N(C)CC[18F])cc2)cc1` [CRANAD-5F], the “in vivo PET imaging of BAT” value (interscapular BAT [6]) is reported as “clearly highlighted BAT at the interscapular site”.

For `CC[N+](CC)=c1ccc2nc3c(cc(N)c4ccccc43)oc-2c1` [Nile Blue], the “uptake in undifferentiated cells over the time course” value [7] was “rapidly reached the plateau”, the “Ratio No 1 (ROI1/ROI2 average fluorescence intensity)” value (interscapular BAT [4]) was 1.00E+00 and the “Ratio No 2 (ROI1/ROI2 average fluorescence intensity)” value (interscapular BAT [4]) was 9.89E−01. The “Ratio No 3 (ROI1/ROI2 average fluorescence intensity)” value (interscapular BAT [4]) was 9.62E−01, the “Ratio AVERAGE (mean ratio ROI1/ROI2)” value (interscapular BAT [4]) was 9.84E−01 and the “uptake in differentiated cells over the time course” value ([8]; differentiated 3T3-L1 cells) was “rapidly reached the plateau”. For the same compound, the “uptake with triglyceride competition” value ([8]; triglyceride added with probe, two-photon microscopy and IVIS) was “no significant decrease in uptake”.
